In patent US10167262B2, “Herbicidal substituted 3-arylpyrazoles” (FMC CORPORATION, priority 2014, dated 2019):

Columns and labels:
Assay type in all cases: in vivo
[1] = test system: wild poinsettia (Euphorbia heterophylla); test: Test E pre-/postemergence greenhouse test, plant response rating 0-100; conditions: scale 0 to 100; for Poinsettia, Wild plant response rating: Preemergence
In short: (§1)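 Preemergence application to planted silt loam and postemergence application to 2–18 cm seedlings are run simultaneously. Evaluation is visual against controls after 14 to 21 days, scored from 0 (no effect) to 100 (complete control).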

[2] = test system: sandbur (southern sandbur, Cenchrus echinatus); test: as above; conditions: scale 0 to 100; for Sandbur plant response rating: Preemergence
In short: as §1

[3] = test system: barnyardgrass (Echinochloa crus-galli); test: as above; conditions: scale 0 to 100; for Barnyardgrass plant response rating: Preemergence
In short: as §1

[4] = test system: arrowleaf sida (Sida rhombifolia); test: as above; conditions: for Arrowleaf Sida plant response rating: Preemergence
In short: as §1

[5] = test system: waterhemp (common waterhemp, Amaranthus rudis); test: as above; conditions: scale 0 to 100; for Waterhemp plant response rating: Preemergence
In short: as §1

[6] = test system: hairy beggarticks (Bidens pilosa); test: as above; conditions: scale 0 to 100; for Beggarticks plant response rating: Preemergence
In short: as §1

[7] = test system: fall panicum (Panicum dichotomiflorum); test: as above; conditions: scale 0 to 100; for Panicum, Fall plant response rating: Preemergence
In short: as §1

[8] = test system: dayflower (Virginia (VA) dayflower, Commelina virginica); test: as above; conditions: scale 0 to 100; for Dayflower, VA plant response rating: Preemergence
In short: as §1

[9] = test system: palmer pigweed (Amaranthus palmeri); test: as above; conditions: scale 0 to 100; for Pigweed, Palmer plant response rating: Preemergence
In short: as §1

[10] = test system: Brazilian crabgrass (Digitaria horizontalis); test: as above; conditions: Digitaria horizontalis, post-emergence, Postemergence, scale 0 to 100, read-out: Plant response rating, Crabgrass, Brazil
In short: as §1

[11] = test system: ducksalad (Heteranthera limosa); test: Test B flooded paddy test, plant response rating 0-100; conditions: Flood, 250 g ai/ha; scale 0 to 100 (0 no effect, 100 complete control); 13 to 15 days
In short: (§2)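 Under a constant 3 cm flood, test compounds went directly into the paddy water. Following 13 to 15 days of greenhouse growth, treated species and controls were compared by eye.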

[12] = test system: barnyardgrass (Echinochloa crus-galli); test: as above; conditions: Flood, 250 g ai/ha; scale 0 to 100 (0 no effect, 100 complete control); 13 to 15 days
In short: as §2

[13] = test system: sedge, umbrella (small-flower umbrella sedge, Cyperus difformis); test: as above; conditions: Flood, 250 g ai/ha; scale 0 to 100 (0 no effect, 100 complete control); 13 to 15 days
In short: as §2

rice (Oryza sativa) = test: as above; conditions: Flood, 250 g ai/ha; scale 0 to 100 (0 no effect, 100 complete control); 13 to 15 days
In short: as §2

Structure (SMILES): O=C(c1ccccc1)c1cn(CO)nc1-c1cc(Cl)cc(Cl)c1 [Compound 15, [3-(3,5-dichlorophenyl)-1-(hydroxymethyl)-1H-pyrazol-4-yl]phenylmethanone]
- pest or weed control at 31 g/ha ([1]; Euphorbia heterophylla, post-emergence, Postemergence, 31 g ai/ha, read-out: Plant response rating, Poinsettia, Wild): 0%
- pest or weed control at 62 g/ha ([1]; Euphorbia heterophylla, post-emergence, Postemergence, 62 g ai/ha, read-out: Plant response rating, Poinsettia, Wild): 0%
- pest or weed control at 125 g/ha ([1]; Euphorbia heterophylla, post-emergence, Postemergence, 125 g ai/ha, read-out: Plant response rating, Poinsettia, Wild): 0%
- pest or weed control at 250 g/ha ([1]; Euphorbia heterophylla, post-emergence, Postemergence, 250 g ai/ha, read-out: Plant response rating, Poinsettia, Wild): 0%
- pest or weed control at 500 g/ha ([1]; Euphorbia heterophylla, post-emergence, Postemergence, 500 g ai/ha, read-out: Plant response rating, Poinsettia, Wild): 0%
- Poinsettia, Wild plant response rating ([1]; 125 g ai/ha): 0
- Poinsettia, Wild plant response rating ([1]; 250 g ai/ha): 0
- Poinsettia, Wild plant response rating ([1]; 500 g ai/ha): 0
- pest or weed control at 31 g/ha ([2]; Cenchrus echinatus, post-emergence, Postemergence, 31 g ai/ha): 0%
- pest or weed control at 62 g/ha ([2]; Cenchrus echinatus, post-emergence, Postemergence, 62 g ai/ha): 0%
- pest or weed control at 125 g/ha ([2]; Cenchrus echinatus, post-emergence, Postemergence, 125 g ai/ha): 0%
- pest or weed control at 250 g/ha ([2]; Cenchrus echinatus, post-emergence, Postemergence, 250 g ai/ha): 0%
- pest or weed control at 500 g/ha ([2]; Cenchrus echinatus, post-emergence, Postemergence, 500 g ai/ha): 0%
- Sandbur plant response rating ([2]; 31 g ai/ha): 0
- Sandbur plant response rating ([2]; 62 g ai/ha): 30
- Sandbur plant response rating ([2]; 125 g ai/ha): 50
- Sandbur plant response rating ([2]; 250 g ai/ha): 40
- Sandbur plant response rating ([2]; 500 g ai/ha): 35
- pest or weed control at 31 g/ha ([3]; Echinochloa crus-galli, post-emergence, Postemergence, 31 g ai/ha): 0%
- pest or weed control at 62 g/ha ([3]; Echinochloa crus-galli, post-emergence, Postemergence, 62 g ai/ha): 0%
- pest or weed control at 125 g/ha ([3]; Echinochloa crus-galli, post-emergence, Postemergence, 125 g ai/ha): 0%
- pest or weed control at 250 g/ha ([3]; Echinochloa crus-galli, post-emergence, Postemergence, 250 g ai/ha): 0%
- pest or weed control at 500 g/ha ([3]; Echinochloa crus-galli, post-emergence, Postemergence, 500 g ai/ha): 0%
- Barnyardgrass plant response rating ([3]; 31 g ai/ha): 0
- Barnyardgrass plant response rating ([3]; 62 g ai/ha): 0
- Barnyardgrass plant response rating ([3]; 125 g ai/ha): 0
- Barnyardgrass plant response rating ([3]; 250 g ai/ha): 0
- Barnyardgrass plant response rating ([3]; 500 g ai/ha): 0
- Arrowleaf Sida plant response rating ([4]; 31 g ai/ha, scale 0 to 100): 25
- Arrowleaf Sida plant response rating ([4]; 62 g ai/ha, scale 0 to 100): 30
- Arrowleaf Sida plant response rating ([4]; 125 g ai/ha, scale 0 to 100): 90
- Arrowleaf Sida plant response rating ([4]; 250 g ai/ha, scale 0 to 100): 100
- Arrowleaf Sida plant response rating ([4]; 500 g ai/ha, scale 0 to 100): 98
- pest or weed control at 31 g/ha ([4]; Sida rhombifolia, post-emergence, Postemergence, 31 g ai/ha, scale 0 to 100): 98%
- pest or weed control at 62 g/ha ([4]; Sida rhombifolia, post-emergence, Postemergence, 62 g ai/ha, scale 0 to 100): 90%
- pest or weed control at 125 g/ha ([4]; Sida rhombifolia, post-emergence, Postemergence, 125 g ai/ha, scale 0 to 100): 98%
- pest or weed control at 250 g/ha ([4]; Sida rhombifolia, post-emergence, Postemergence, 250 g ai/ha, scale 0 to 100): 98%
- pest or weed control at 500 g/ha ([4]; Sida rhombifolia, post-emergence, Postemergence, 500 g ai/ha, scale 0 to 100 (0 no effect, 100 complete control)): 98%
- pest or weed control at 31 g/ha ([5]; Amaranthus tuberculatus, post-emergence, Postemergence, 31 g ai/ha): 80%
- pest or weed control at 62 g/ha ([5]; Amaranthus tuberculatus, post-emergence, Postemergence, 62 g ai/ha): 98%
- pest or weed control at 125 g/ha ([5]; Amaranthus tuberculatus, post-emergence, Postemergence, 125 g ai/ha): 95%
- pest or weed control at 250 g/ha ([5]; Amaranthus tuberculatus, post-emergence, Postemergence, 250 g ai/ha): 100%
- pest or weed control at 500 g/ha ([5]; Amaranthus tuberculatus, post-emergence, Postemergence, 500 g ai/ha): 100%
- Waterhemp plant response rating ([5]; 31 g ai/ha): 0
- Waterhemp plant response rating ([5]; 62 g ai/ha): 70
- Waterhemp plant response rating ([5]; 125 g ai/ha): 90
- Waterhemp plant response rating ([5]; 250 g ai/ha): 75
- Waterhemp plant response rating ([5]; 500 g ai/ha): 100
- pest or weed control at 31 g/ha ([6]; Bidens pilosa, post-emergence, Postemergence, 31 g ai/ha): 90%
- pest or weed control at 62 g/ha ([6]; Bidens pilosa, post-emergence, Postemergence, 62 g ai/ha): 98%
- pest or weed control at 125 g/ha ([6]; Bidens pilosa, post-emergence, Postemergence, 125 g ai/ha): 98%
- pest or weed control at 250 g/ha ([6]; Bidens pilosa, post-emergence, Postemergence, 250 g ai/ha): 100%
- pest or weed control at 500 g/ha ([6]; Bidens pilosa, post-emergence, Postemergence, 500 g ai/ha): 98%
- Beggarticks plant response rating ([6]; 31 g ai/ha): 0
- Beggarticks plant response rating ([6]; 62 g ai/ha): 0
- Beggarticks plant response rating ([6]; 125 g ai/ha): 0
- Beggarticks plant response rating ([6]; 250 g ai/ha): 25
- Beggarticks plant response rating ([6]; 500 g ai/ha): 80
- pest or weed control at 31 g/ha ([7]; Panicum dichotomiflorum, post-emergence, Postemergence, 31 g ai/ha): 0%
- pest or weed control at 62 g/ha ([7]; Panicum dichotomiflorum, post-emergence, Postemergence, 62 g ai/ha): 0%
- pest or weed control at 125 g/ha ([7]; Panicum dichotomiflorum, post-emergence, Postemergence, 125 g ai/ha): 0%
- pest or weed control at 250 g/ha ([7]; Panicum dichotomiflorum, post-emergence, Postemergence, 250 g ai/ha): 0%
- pest or weed control at 500 g/ha ([7]; Panicum dichotomiflorum, post-emergence, Postemergence, 500 g ai/ha): 35%
- Panicum, Fall plant response rating ([7]; 31 g ai/ha): 0
- Panicum, Fall plant response rating ([7]; 62 g ai/ha): 0
- Panicum, Fall plant response rating ([7]; 125 g ai/ha): 0
- Panicum, Fall plant response rating ([7]; 250 g ai/ha): 0
- Panicum, Fall plant response rating ([7]; 500 g ai/ha): 0
- pest or weed control at 31 g/ha ([8]; Commelina virginica, post-emergence, Postemergence, 31 g ai/ha): 0%
- pest or weed control at 62 g/ha ([8]; Commelina virginica, post-emergence, Postemergence, 62 g ai/ha): 0%
- pest or weed control at 125 g/ha ([8]; Commelina virginica, post-emergence, Postemergence, 125 g ai/ha): 0%
- pest or weed control at 250 g/ha ([8]; Commelina virginica, post-emergence, Postemergence, 250 g ai/ha): 0%
- pest or weed control at 500 g/ha ([8]; Commelina virginica, post-emergence, Postemergence, 500 g ai/ha): 0%
- Dayflower, VA plant response rating ([8]; 31 g ai/ha): 0
- Dayflower, VA plant response rating ([8]; 62 g ai/ha): 0
- Dayflower, VA plant response rating ([8]; 125 g ai/ha): 0
- Dayflower, VA plant response rating ([8]; 500 g ai/ha): 0
- pest or weed control at 31 g/ha ([9]; Amaranthus palmeri, post-emergence, Postemergence, 31 g ai/ha): 35%
- pest or weed control at 62 g/ha ([9]; Amaranthus palmeri, post-emergence, Postemergence, 62 g ai/ha): 75%
- pest or weed control at 125 g/ha ([9]; Amaranthus palmeri, post-emergence, Postemergence, 125 g ai/ha): 75%
- pest or weed control at 250 g/ha ([9]; Amaranthus palmeri, post-emergence, Postemergence, 250 g ai/ha): 98%
- pest or weed control at 500 g/ha ([9]; Amaranthus palmeri, post-emergence, Postemergence, 500 g ai/ha): 100%
- Pigweed, Palmer plant response rating ([9]; 31 g ai/ha): 0
- Pigweed, Palmer plant response rating ([9]; 62 g ai/ha): 0
- Pigweed, Palmer plant response rating ([9]; 125 g ai/ha): 0
- Pigweed, Palmer plant response rating ([9]; 250 g ai/ha): 65
- Pigweed, Palmer plant response rating ([9]; 500 g ai/ha): 100
- pest or weed control at 31 g/ha ([10]; 31 g ai/ha): 0%
- pest or weed control at 62 g/ha ([10]; 62 g ai/ha): 0%
- pest or weed control at 125 g/ha ([10]; 125 g ai/ha): 0%
- pest or weed control at 250 g/ha ([10]; 250 g ai/ha): 0%
- pest or weed control at 500 g/ha ([10]; 500 g ai/ha): 0%
- Plant response rating, Ducksalad [11]: 0
- Plant response rating, Barnyardgrass [12]: 0
- Plant response rating, Sedge, Umbrella [13]: 0
- Plant response rating, Rice (rice (Oryza sativa)): 0
